Measurements: ChEMBL document CHEMBL4811295, “The ester derivatives obtained by C-ring modification of podophyllotoxin induce apoptosis and inhibited proliferation in PC-3M cells via down-regulation of PI3K/Akt signaling pathway” (Bioorg Med Chem Lett, 2021)
Activity calls are given as the source filed them. No cut-off for these calls is given here.

Legend:
[1] = tested on: PC-3M; test: Cytotoxicity in human PC-3M cells assessed as inhibition of cell proliferation measured by CCK-8 assay; type: functional, cell-based
[2] = tested on: HMEC; test: Cytotoxicity in human HMEC cells assessed as inhibition of cell proliferation measured by CCK-8 assay; type: functional, cell-based
[3] = tested on: A549; test: Cytotoxicity in human A549 cells assessed as inhibition of cell proliferation measured by CCK-8 assay; type: functional, cell-based
[4] = tested on: MCF7; test: Cytotoxicity in human MCF7 cells assessed as inhibition of cell proliferation measured by CCK-8 assay; type: functional, cell-based
[5] = tested on: HepG2; test: Cytotoxicity in human HepG2 cells assessed as inhibition of cell proliferation measured by CCK-8 assay; type: functional, cell-based
[6] = tested on: PC-3M; test: Antiproliferative activity against human PC-3M cells assessed as inhibition of cell proliferation at 1 nM measured after 9 days by Crystal violet staining based colony formation assay; type: functional; conditions: time 9.0 day
[7] = tested on: PC-3M; test: Induction of apoptosis in human PC-3M cells assessed as viable cells at 1 nM measured after 48 hrs by Annexin V/PI staining based flow cytometry method (reference value: 95.6%); type: functional; conditions: read-out: Activity
[8] = tested on: PC-3M; test: Induction of apoptosis in human PC-3M cells assessed as early apoptotic cells at 1 nM measured after 48 hrs by Annexin V/PI staining based flow cytometry method (reference value: 1.25%); type: functional
[9] = tested on: PC-3M; test: Induction of apoptosis in human PC-3M cells assessed as late apoptotic cells at 1 nM measured after 48 hrs by Annexin V/PI staining based flow cytometry method (reference value: 2.88%); type: functional
[10] = tested on: PC-3M; test: Induction of apoptosis in human PC-3M cells assessed as necrotic cells at 1 nM measured after 48 hrs by Annexin V/PI staining based flow cytometry method (reference value: 0.25%); type: functional
[11] = tested on: PC-3M; test: Induction of apoptosis in human PC-3M cells assessed as viable cells at 5 nM measured after 48 hrs by Annexin V/PI staining based flow cytometry method (reference value: 95.6%); type: functional; conditions: read-out: Activity
[12] = tested on: PC-3M; test: Induction of apoptosis in human PC-3M cells assessed as early apoptotic cells at 5 nM measured after 48 hrs by Annexin V/PI staining based flow cytometry method (reference value: 1.25%); type: functional
[13] = tested on: PC-3M; test: Induction of apoptosis in human PC-3M cells assessed as late apoptotic cells at 5 nM measured after 48 hrs by Annexin V/PI staining based flow cytometry method (reference value: 2.88%); type: functional
[14] = tested on: PC-3M; test: Induction of apoptosis in human PC-3M cells assessed as necrotic cells at 5 nM measured after 48 hrs by Annexin V/PI staining based flow cytometry method (reference value: 0.25%); type: functional
[15] = tested on: PC-3M; test: Induction of apoptosis in human PC-3M cells assessed as viable cells at 10 nM measured after 48 hrs by Annexin V/PI staining based flow cytometry method (reference value: 95.6%); type: functional; conditions: read-out: Activity
[16] = tested on: PC-3M; test: Induction of apoptosis in human PC-3M cells assessed as early apoptotic cells at 10 nM measured after 48 hrs by Annexin V/PI staining based flow cytometry method (reference value: 1.25%); type: functional
[17] = tested on: PC-3M; test: Induction of apoptosis in human PC-3M cells assessed as late apoptotic cells at 10 nM measured after 48 hrs by Annexin V/PI staining based flow cytometry method (reference value: 2.88%); type: functional
[18] = tested on: PC-3M; test: Induction of apoptosis in human PC-3M cells assessed as necrotic cells at 10 nM measured after 48 hrs by Annexin V/PI staining based flow cytometry method (reference value: 0.25%); type: functional

SMILES | IC50 [1] | IC50 [2] | IC50 [3] | IC50 [4] | IC50 [5] | Activity [6] | viability at 0.001 µM [7] | Activity [8] | Activity [9] | Activity [10] | viability at 0.005 µM [11] | Activity [12] | Activity [13] | Activity [14] | viability at 0.01 µM [15] | Activity [16] | Activity [17] | Activity [18]
COc1cc([C@@H]2c3cc4c(cc3[C@H](OC(=O)c3sccc3Cl)[C@H]3COC(=O)[C@H]23)OCO4)cc(OC)c1OC | 965 nM | 116 nM | 155 nM | > 200000 nM | 149000 nM | – | – | – | – | – | – | – | – | – | – | – | – | –
COc1cc([C@@H]2c3cc4c(cc3[C@H](OC(=O)c3cccs3)[C@H]3COC(=O)[C@H]23)OCO4)cc(OC)c1OC | 770 nM | 672 nM | 68.4 nM | 26500 nM | 26900 nM | – | – | – | – | – | – | – | – | – | – | – | – | –
COc1cc([C@@H]2c3cc4c(cc3[C@H](OC(=O)[C@H](Cc3ccccc3)NC(=O)OC(C)(C)C)[C@H]3COC(=O)[C@H]23)OCO4)cc(OC)c1OC | 20.1 nM | 2460 nM | 23.4 nM | 72400 nM | > 200000 nM | – | – | – | – | – | – | – | – | – | – | – | – | –
COc1cc([C@@H]2c3cc4c(cc3[C@H](O)[C@H]3COC(=O)[C@H]23)OCO4)cc(OC)c1OC [PODOFILOX] | 235 nM | 1340 nM | 5.37 nM | > 200000 nM | > 200000 nM | inactive | 94.4% | 1.71% | 3.78% | 0.083% | 87.6% | 3.17% | 9.11% | 0.17% | 75.7% | 3.31% | 20.9% | 0.11%
CCCCCCCCCCCCCCCCCC(=O)O[C@H]1c2cc3c(cc2[C@@H](c2cc(OC)c(OC)c(OC)c2)[C@H]2C(=O)OC[C@@H]21)OCO3 | 2600 nM | 3070 nM | 7320 nM | > 200000 nM | 141000 nM | – | – | – | – | – | – | – | – | – | – | – | – | –
CC[C@H](C)[C@H](NC(=O)OC(C)(C)C)C(=O)O[C@H]1c2cc3c(cc2[C@@H](c2cc(OC)c(OC)c(OC)c2)[C@H]2C(=O)OC[C@@H]21)OCO3 | 1070 nM | 4480 nM | 7960 nM | 69900 nM | 866 nM | – | – | – | – | – | – | – | – | – | – | – | – | –
CCCCCCCCCCCCCCCC(=O)O[C@H]1c2cc3c(cc2[C@@H](c2cc(OC)c(OC)c(OC)c2)[C@H]2C(=O)OC[C@@H]21)OCO3 | 2300 nM | 5380 nM | 4590 nM | > 200000 nM | 117000 nM | – | – | – | – | – | – | – | – | – | – | – | – | –
COc1cc([C@@H]2c3cc4c(cc3[C@H](OC(=O)[C@H](CCSC)NC(=O)OC(C)(C)C)[C@H]3COC(=O)[C@H]23)OCO4)cc(OC)c1OC | 5.11 nM | 2600 nM | 1030 nM | 93100 nM | 51000 nM | – | – | – | – | – | – | – | – | – | – | – | – | –
COc1cc([C@@H]2c3cc4c(cc3[C@H](OC(=O)[C@@H]3CCCN3C(=O)OC(C)(C)C)[C@H]3COC(=O)[C@H]23)OCO4)cc(OC)c1OC | 1720 nM | 3230 nM | 600 nM | 124000 nM | 50800 nM | – | – | – | – | – | – | – | – | – | – | – | – | –
COc1cc([C@@H]2c3cc4c(cc3[C@H](OC(=O)[C@H](Cc3c[nH]c5ccccc35)NC(=O)OC(C)(C)C)[C@H]3COC(=O)[C@H]23)OCO4)cc(OC)c1OC | 6.07 nM | 1800 nM | 314 nM | > 200000 nM | > 200000 nM | – | – | – | – | – | – | – | – | – | – | – | – | –
